Measured values from ChEMBL document CHEMBL1127005, “Design of novel agents for the therapy of non-insulin dependent diabetes mellitus (NIDDM)” (Bioorg Med Chem Lett, 1993).

Organism: Rattus norvegicus
Assay: Inhibition against gluconeogenesis was expressed as effect of compound on rat hepatocyte glucose production from 10 mM lactate/1 mM pyruvate/0.5 mM oleate
Format: functional
Details: Rattus norvegicus, Hepatocyte

SMILES | IC50
C=C1[C@@H](CC(N)=O)[C@H]1CCCC | 4 µM
C=C1[C@@H](CCCCCCCCCCCC)[C@@H]1CC(=O)O | 160 µM
C=C1[C@@H](CC(=O)O)[C@H]1CCCC | 15 µM
C=C1C[C@@H]1CC(N)=O | 30 µM
C=C1[C@@H](CC(N)=O)[C@H]1CCCCCCCCCCCC | 32 µM
C=C1[C@H](CCCC)[C@H]1CC(N)=O | 60 µM
C=C1[C@H](CCCC)[C@H]1CC(=O)O | 30 µM
C=C1[C@@H](CC(N)=O)[C@H]1CCCCCCCC | 8 µM
C=C1C[C@@H]1CC(=O)O | 60 µM
C=C1[C@@H](CC(=O)O)[C@H]1CCCCCCCCCCCC | 25 µM
C=C1[C@@H](CC(=O)O)[C@H]1CCCCCCCC | 5 µM

Same assay, conditions: hepatocyte

SMILES | IC50
C=C1[C@H](CCCCCCCCCCCC)[C@H]1CC(=O)O (stereo in doubt) | 13 µM
C=C1[C@H](CCCCCCCCCCCC)[C@H]1CC(=O)O (stereo in doubt; 4d) | 200 µM
